Reference: patent US11000033B2, “Ketone or oxime compound, and herbicide” (NISSAN CHEMICAL CORPORATION, priority 2014, dated 2021)

Experiments:
Format in all cases: in vivo
[1] = system: Alopecurus myosuroides; assay: Test Example 5: herbicidal effect by foliage application, plastic box (symbol J); details: 320 g/ha, 3 weeks after application
Procedure, shortened: (§1)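 Emulsion formulation, diluted with water to the intended rate, was applied uniformly to leaves by small sprayer. Recipients were 14-day greenhouse-grown seedlings (25° C. to 30° C.). Assessment followed at 3 weeks.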

[2] = system: directly sowed rice plant; assay: Test Example 3: effect on crop by foliage application, Wagner pot (symbol b); details: application herbicide amount 320 g/ha
Procedure, shortened: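 Steps: fill a 1/10000-are Wagner pot with alluvial soil; add water and mix to submerge at 0.1–0.5 cm depth; sow rice plus Echinochloa crus-galli var. crus-galli, Leptochloa chinensis and Cyperus difformis; grow in a 25–30 °C greenhouse.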

[3] = system: Digitaria ciliaris; assay: Test Example 5: herbicidal effect by foliage application, plastic box (symbol F); details: 320 g/ha, 3 weeks after application
Procedure, shortened: as §1

[4] = system: Echinochloa crus-galli var. crus-galli; assay: Test Example 3: herbicidal effect by foliage application, Wagner pot (symbol H); details: application herbicide amount 320 g/ha
Procedure, shortened: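 Foliar spray of water-diluted emulsion formulation at a predetermined herbicide amount onto 14-day-old plants in flooded alluvial soil (water depth 0.1–0.5 cm), greenhouse 25–30 °C; rice sown alongside. Scored 3 wk post-application on set criteria.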

[5] = system: Lolium multiflorum Lam.; assay: Test Example 5: herbicidal effect by foliage application, plastic box (symbol K); details: 320 g/ha, 3 weeks after application
Procedure, shortened: as §1

[6] = system: Lolium multiflorum Lam.; assay: Test Example 4: herbicidal effect by soil treatment (symbol K); details: application herbicide amount 320 g/ha
Procedure, shortened: (§2)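 Seeds were sown in sterilized diluvial soil, covered with about 1.5 cm of soil, and the soil surface was sprayed with a water-diluted emulsion of the compound at a predetermined rate. Plants grew in a greenhouse at 25° C. to 30° C.; effects were scored visually 3 weeks after application.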

[7] = system: Abutilon theophrasti; assay: Test Example 5: herbicidal effect by foliage application, plastic box (symbol M); details: 320 g/ha, 3 weeks after application
Procedure, shortened: as §1

[8] = system: transplanted rice plant; assay: Test Example 1: effect on crop, application before weed generation in submerged conditions (symbol a); details: application herbicide amount 320 g/ha
Procedure, shortened: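 Rice at 2.5 leaf stage transplanted into submerged soil (4 cm depth) sown with three weed species; herbicide applied before weed emergence.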

[9] = system: Digitaria ciliaris; assay: Test Example 4: herbicidal effect by soil treatment (symbol F); details: application herbicide amount 320 g/ha
Procedure, shortened: as §2

[10] = system: beet; assay: Test Example 5: effect on crop by foliage application, plastic box (symbol f); details: 320 g/ha, 3 weeks after application
Procedure, shortened: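 Sterilized diluvial soil, plastic box (21 × 13 × 7 cm); spot sowing, ~1.5 cm soil cover; greenhouse 25–30° C.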

[11] = system: Stellaria media; assay: Test Example 5: herbicidal effect by foliage application, plastic box (symbol P); details: 320 g/ha, 3 weeks after application
Procedure, shortened: as §1

[12] = system: Setaria viridis; assay: Test Example 4: herbicidal effect by soil treatment (symbol G); details: application herbicide amount 320 g/ha
Procedure, shortened: as §2

[13] = system: Veronica persica; assay: Test Example 4: herbicidal effect by soil treatment (symbol R); details: application herbicide amount 320 g/ha
Procedure, shortened: as §2

[14] = system: wheat; assay: Test Example 4: effect on crop by soil treatment (symbol e); details: application herbicide amount 320 g/ha
Procedure, shortened: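 Crop seed is sown in spots together with several weed species in a box of sterilized diluvial soil. It is covered by about 1.5 cm of soil and kept in a greenhouse held between 25° C. and 30° C.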

[15] = system: Amaranthus retroflexus; assay: Test Example 4: herbicidal effect by soil treatment (symbol N); details: application herbicide amount 320 g/ha
Procedure, shortened: as §2

[16] = system: Chenopodium album; assay: Test Example 5: herbicidal effect by foliage application, plastic box (symbol O); details: 320 g/ha, 3 weeks after application
Procedure, shortened: as §1

CON=C(C)CC1CC(O)=C(c2c(C)cc(OCc3ccncc3)cc2C)C1=O (mixture of isomers) [6-053]
J: Alopecurus myosuroides, herbicidal effect grade [1]: 3 (Herbicidal ratio of 40% or higher and lower than 70%)
effect on crop b (directly sowed rice plant), grade 0-5 [2]: 5 (Herbicidal ratio of 90% or more (almost completely withered))
F: Digitaria ciliaris, herbicidal effect grade [3]: 5 (Herbicidal ratio of 90% or more (almost completely withered))
herbicidal effect on H (Echinochloa crus-galli var. crus-galli), grade 0-5 [4]: 5 (Herbicidal ratio of 90% or more (almost completely withered))
K: Lolium multiflorum Lam., herbicidal effect grade [5]: 5 (Herbicidal ratio of 90% or more (almost completely withered))
K: Lolium multiflorum Lam., herbicidal effect grade [6]: 0 (Herbicidal ratio of 5% or lower (almost no effect))
M: Abutilon theophrasti, herbicidal effect grade [7]: 0 (Herbicidal ratio of 5% or lower (almost no effect))
Effect grade on crop, a: transplanted rice plant [8]: 3 (Herbicidal ratio of 40% or higher and lower than 70%)
F: Digitaria ciliaris, herbicidal effect grade [9]: 4 (Herbicidal ratio of 70% or higher and lower than 90%)
f: beet, effect on crop grade [10]: 0 (Herbicidal ratio of 5% or lower (almost no effect))
P: Stellaria media, herbicidal effect grade [11]: 0 (Herbicidal ratio of 5% or lower (almost no effect))
G: Setaria viridis, herbicidal effect grade [12]: 3 (Herbicidal ratio of 40% or higher and lower than 70%)
R: Veronica persica, herbicidal effect grade [13]: 0 (Herbicidal ratio of 5% or lower (almost no effect))
e: wheat, effect on crop grade [14]: 0 (Herbicidal ratio of 5% or lower (almost no effect))
N: Amaranthus retroflexus, herbicidal effect grade [15]: 0 (Herbicidal ratio of 5% or lower (almost no effect))
O: Chenopodium album, herbicidal effect grade [16]: 0 (Herbicidal ratio of 5% or lower (almost no effect))

CC(CC1CC(O)=C(c2c(C)cc(C)cc2C)C1=O)=NOCc1ccccn1 (centres unmarked) [1-022]
J: Alopecurus myosuroides, herbicidal effect grade [1]: 5 (Herbicidal ratio of 90% or more (almost completely withered))
effect on crop b (directly sowed rice plant), grade 0-5 [2]: 5 (Herbicidal ratio of 90% or more (almost completely withered))
F: Digitaria ciliaris, herbicidal effect grade [3]: 5 (Herbicidal ratio of 90% or more (almost completely withered))
herbicidal effect on H (Echinochloa crus-galli var. crus-galli), grade 0-5 [4]: 5 (Herbicidal ratio of 90% or more (almost completely withered))
K: Lolium multiflorum Lam., herbicidal effect grade [5]: 5 (Herbicidal ratio of 90% or more (almost completely withered))
K (Lolium multiflorum Lam.) herbicidal effect grade [6]: 5 (Herbicidal ratio of 90% or more (almost completely withered))
M: Abutilon theophrasti, herbicidal effect grade [7]: 1 (Herbicidal ratio of 5% or higher and lower than 20%)
Effect grade on crop, a: transplanted rice plant [8]: 5 (Herbicidal ratio of 90% or more (almost completely withered))
F (Digitaria ciliaris) herbicidal effect grade [9]: 5 (Herbicidal ratio of 90% or more (almost completely withered))
f: beet, effect on crop grade [10]: 0 (Herbicidal ratio of 5% or lower (almost no effect))
P: Stellaria media, herbicidal effect grade [11]: 3 (Herbicidal ratio of 40% or higher and lower than 70%)
G (Setaria viridis) herbicidal effect grade [12]: 3 (Herbicidal ratio of 40% or higher and lower than 70%)
e (wheat) effect on crop grade [14]: 4 (Herbicidal ratio of 70% or higher and lower than 90%)
N (Amaranthus retroflexus) herbicidal effect grade [15]: 0 (Herbicidal ratio of 5% or lower (almost no effect))
O: Chenopodium album, herbicidal effect grade [16]: 3 (Herbicidal ratio of 40% or higher and lower than 70%)

CON=C(C)CC1CC(OC(=O)C(C)(C)Oc2ccccc2)=C(c2c(C)cc(C)cc2C)C1=O (centres unmarked) [1-017]
J: Alopecurus myosuroides, herbicidal effect grade [1]: 5 (Herbicidal ratio of 90% or more (almost completely withered))
effect on crop b (directly sowed rice plant), grade 0-5 [2]: 5 (Herbicidal ratio of 90% or more (almost completely withered))
F: Digitaria ciliaris, herbicidal effect grade [3]: 5 (Herbicidal ratio of 90% or more (almost completely withered))
herbicidal effect on H (Echinochloa crus-galli var. crus-galli), grade 0-5 [4]: 5 (Herbicidal ratio of 90% or more (almost completely withered))
K: Lolium multiflorum Lam., herbicidal effect grade [5]: 5 (Herbicidal ratio of 90% or more (almost completely withered))
K (Lolium multiflorum Lam.) herbicidal effect grade [6]: 5 (Herbicidal ratio of 90% or more (almost completely withered))
M: Abutilon theophrasti, herbicidal effect grade [7]: 4 (Herbicidal ratio of 70% or higher and lower than 90%)
Effect grade on crop, a: transplanted rice plant [8]: 5 (Herbicidal ratio of 90% or more (almost completely withered))
F (Digitaria ciliaris) herbicidal effect grade [9]: 5 (Herbicidal ratio of 90% or more (almost completely withered))
f: beet, effect on crop grade [10]: 2 (Herbicidal ratio of 20% or higher and lower than 40%)
G (Setaria viridis) herbicidal effect grade [12]: 5 (Herbicidal ratio of 90% or more (almost completely withered))
e (wheat) effect on crop grade [14]: 2 (Herbicidal ratio of 20% or higher and lower than 40%)
N (Amaranthus retroflexus) herbicidal effect grade [15]: 5 (Herbicidal ratio of 90% or more (almost completely withered))
O: Chenopodium album, herbicidal effect grade [16]: 2 (Herbicidal ratio of 20% or higher and lower than 40%)

CON=C(C)CC1CC(OC(=O)C(C)(C)CCl)=C(c2c(C)cc(C)cc2C)C1=O (centres unmarked) [1-016]
J: Alopecurus myosuroides, herbicidal effect grade [1]: 5 (Herbicidal ratio of 90% or more (almost completely withered))
effect on crop b (directly sowed rice plant), grade 0-5 [2]: 5 (Herbicidal ratio of 90% or more (almost completely withered))
F: Digitaria ciliaris, herbicidal effect grade [3]: 5 (Herbicidal ratio of 90% or more (almost completely withered))
herbicidal effect on H (Echinochloa crus-galli var. crus-galli), grade 0-5 [4]: 5 (Herbicidal ratio of 90% or more (almost completely withered))
K: Lolium multiflorum Lam., herbicidal effect grade [5]: 5 (Herbicidal ratio of 90% or more (almost completely withered))
K (Lolium multiflorum Lam.) herbicidal effect grade [6]: 5 (Herbicidal ratio of 90% or more (almost completely withered))
M: Abutilon theophrasti, herbicidal effect grade [7]: 4 (Herbicidal ratio of 70% or higher and lower than 90%)
Effect grade on crop, a: transplanted rice plant [8]: 5 (Herbicidal ratio of 90% or more (almost completely withered))
F (Digitaria ciliaris) herbicidal effect grade [9]: 5 (Herbicidal ratio of 90% or more (almost completely withered))
f: beet, effect on crop grade [10]: 3 (Herbicidal ratio of 40% or higher and lower than 70%)
G (Setaria viridis) herbicidal effect grade [12]: 3 (Herbicidal ratio of 40% or higher and lower than 70%)
e (wheat) effect on crop grade [14]: 2 (Herbicidal ratio of 20% or higher and lower than 40%)
N (Amaranthus retroflexus) herbicidal effect grade [15]: 5 (Herbicidal ratio of 90% or more (almost completely withered))
O: Chenopodium album, herbicidal effect grade [16]: 2 (Herbicidal ratio of 20% or higher and lower than 40%)

CON=C(C)C(=O)C1CC(O)=C(c2c(C)cc(C)cc2C)C1=O (centres unmarked) [8-002]
J: Alopecurus myosuroides, herbicidal effect grade [1]: 4 (Herbicidal ratio of 70% or higher and lower than 90%)
b (directly sowed rice plant) effect on crop grade ([2]; Table 24): 0 (Herbicidal ratio of 5% or lower (almost no effect))
F: Digitaria ciliaris, herbicidal effect grade [3]: 0 (Herbicidal ratio of 5% or lower (almost no effect))
H (Echinochloa crus-galli var. crus-galli) herbicidal effect grade ([4]; Table 24): 0 (Herbicidal ratio of 5% or lower (almost no effect))
K: Lolium multiflorum Lam., herbicidal effect grade [5]: 5 (Herbicidal ratio of 90% or more (almost completely withered))
Herbicidal effect grade, K: Lolium multiflorum Lam. [6]: 0 (Herbicidal ratio of 5% or lower (almost no effect))
M: Abutilon theophrasti, herbicidal effect grade [7]: 0 (Herbicidal ratio of 5% or lower (almost no effect))
Effect grade on crop, a: transplanted rice plant [8]: 0 (Herbicidal ratio of 5% or lower (almost no effect))
Herbicidal effect grade, F: Digitaria ciliaris [9]: 3 (Herbicidal ratio of 40% or higher and lower than 70%)
f: beet, effect on crop grade [10]: 0 (Herbicidal ratio of 5% or lower (almost no effect))
P: Stellaria media, herbicidal effect grade [11]: 0 (Herbicidal ratio of 5% or lower (almost no effect))
Herbicidal effect grade, G: Setaria viridis [12]: 0 (Herbicidal ratio of 5% or lower (almost no effect))
Effect on crop grade, e: wheat [14]: 0 (Herbicidal ratio of 5% or lower (almost no effect))
Herbicidal effect grade, N: Amaranthus retroflexus [15]: 0 (Herbicidal ratio of 5% or lower (almost no effect))
O: Chenopodium album, herbicidal effect grade [16]: 0 (Herbicidal ratio of 5% or lower (almost no effect))
